Laboratory results from patent US20250204515A1, “Heparanase Inhibition for Graft Protection” (University of Pittsburgh - Of the Commonwealth System of …, priority 2022, published 2025).
“Also recorded” adds a separate entry of the source.

How the values were obtained:
rat lungs = test: Ex vivo lung perfusion (EVLP) of donor-pretreated rat lungs; type: in vivo; conditions: donor pre-treatment; for pulmonary vascular resistance (PVR) during EVLP: 3 h normothermic EVLP; for syndecan-1 concentration in EVLP perfusate: during EVLP, vs increasing levels in control; for Evans blue dye (EBD) penetration into lung parenchyma: last 30 min of EVLP, vs control
Protocol: Ex vivo lung perfusion in rats. EVLP was performed using a commercially available rodent EVLP system (IPL-2 Isolated Perfused Rat or Guinea Pig Lung System; Harvard Apparatus, Holliston, MA). After procurement, the lungs were kept under cold ischemia for 1 h, then placed on the EVLP system, ventilated with air warmed to 37′, and perfused with 100 ml STEEN solution (XVIVO Perfusion AB) that was deoxygenated with 6% O2, 8% CO2 and balanced N2 and supplemented with 50 mg of methylprednisolone (Solu-Medrol; Pfizer, Inc.) and 50 mg of cephalosporin (Cefazolin; West-Ward Pharmaceuticals Corp., Eatontown, NJ). […] Pulmonary artery pressure, peak airway pressure, and airway flow were monitored continuously, and lung compliance and PVR were calculated every hour.
Assessment of endothelial barrier function. After 3 h of EVLP, 6 mg of Evans blue dye (EBD, Millipore Sigma) was administered into the perfusate to assess vascular endothelial permeability. After 30 min of perfusion, the lung vascular bed was rinsed with 20 ml of PBS and pieces of lungs were incubated overnight in formamide (Millipore Sigma) at 60° C. Absorbance of the extractant was measured at 620 nm to quantitate the amount of EBD that had permeabilized into the tissue and was normalized to dry-tissue weight.
Determination of glycocalyx components in rat lung grafts. For rat lung tissue, syndecan-1 released into the perfusate during EVLP was measured with a rat-specific ELISA (Immunotag Rat SDC1 (Syndecan-1) ELISA, G-Biosciences, St. Louis, MO). Glycocalyx glycosaminoglycans (GAGs) were quantitated using the 1,9-dimethylmethylene blue (DMMB, Millipore Sigma) method with modifications. A 1 L solution of DMMB (pH˜3.0) was prepared by dissolving 16 mg DMMB in distilled H2O containing 3.04 g/A glycine, 1.6 g/A NaCl and 95 ml 0.1 M acetic acid. Briefly, 1 ml DMMB solution was added to 20 μl lung tissue lysate then incubated at room temperature for 1 h on a tube rotator. The tubes were then centrifuged at 14,000 rpm for 15 min at 4° C. Supernatants were carefully decanted, 200 μL sodium lauryl sulfate buffer (2.08 mM) was added to each pellet, and the tubes were vortexed until GAG-DMMB pellets were no longer visible. GAG content in each sample was measured spectrophotometrically at 656 nm.

IL-6, IL-1β, MMP-9 mRNA = test: Real-time RT-PCR in lung grafts 2 h after transplantation; type: in vivo, rat; conditions: for IL-1β mRNA expression / IL-6 mRNA expression: graft 2 h after reperfusion, vs control lung grafts; for MMP-9 mRNA expression: graft 2 h after transplantation, vs control
Protocol: Real-time RT PCR. Lung tissues were collected after EVLP or 2 h after transplantation. Total RNA was extracted from the graft using TRIzol reagent (Life Technologies, Inc. Grand Island, NY) according to the manufacturer's instructions and purified by ethanol precipitation. RNA content was measured using 260/280 nm UV spectrophotometry.

[1] = system: endothelial glycocalyx (eGC); test: Gross inspection and TEM glycocalyx imaging of rat lungs after 1 h warm ischemia; type: in vivo; conditions: for gross visual appearance of excised lungs: heparin 300 IU or NAH 300 μg i.v. before 1 h ischemia; for eGC ultrastructure in lung vasculature (TEM): heparin 300 IU or NAH 300 μg i.v. before 1 h warm ischemia, vs control
Protocol: Models of lungs with damaged or preserved eGC and rat orthotopic left lung transplantation. Rats were sedated with 4% isoflurane via inhalation for tracheostomy and then placed on a ventilator. They received 5% isoflurane with 100% O2 via inhalation through the ventilator for 15 min to induce a deep state of anesthesia that causes arrest of spontaneous breathing. The rats were disconnected from the ventilator 5 min after intravenous administration of heparin (300 IU), a heparin derivative without anti-coagulant properties (300 μg; N-acetyl heparin (NAH) (Millipore Sigma, Burlington, MA)), or saline (300 μl, control) through the jugular vein. Cardiac activity and blood oxygen saturation were monitored after disconnection from ventilator until cardiac arrest. One hour after induction of ischemia, a median thoracotomy was performed, and blood was flushed from the lungs with cold, low potassium dextran solution (PERFADEX; XVIVO Perfusion AB) through the pulmonary artery. Then, the heart-lung bloc was isolated and stored in cold PERFADEX for 6 h before transplantation.
TEM for glycocalyx imaging. To prepare the tissue for transmission electron microscopy imaging, blood was flushed from rat lungs with PBS via the pulmonary artery after 1 h of warm ischemia, then the lungs were perfused with a solution containing 2% glutaraldehyde, 2% sucrose, 0.1 M sodium cacodylate buffer (pH 7.3, Sigma), and 2% lanthanum nitrate (Sigma). Excised lung tissues were incubated with the same solution for 2 h at 4° C. for fixation. The fixed tissues were immersed in a 2% sucrose, 0.1 M sodium cacodylate buffer (pH 7.3) solution with 2% lanthanum nitrate overnight at 4° C. to stain the glycocalyx, then washed twice with an alkaline solution (0.03 mol/l NaOH) containing 2% sucrose. Following fixation and glycocalyx staining with lanthanum nitrate, the specimens were rinsed in PBS, post-fixed in 1% osmium tetroxide (Electron Microscopy Sciences, Hatfield, PA), rinsed in PBS a second time, dehydrated through a graded series of ethanol and propylene oxide (Electron Microscopy Sciences), and embedded using a Poly/Bed 812 (Luft formulations) Embedding Kit (Polysciences, Warrington, PA). Sections were cut on a Leica-Reichart Ultracut ultra-microtome (Leica Microsystems, Buffalo Grove, IL). Semi-thin (300 nm) sections were stained with 0.5% toluidine blue in 1% sodium borate (toluidine blue O and sodium borate, Fisher Scientific, Pittsburgh, PA) and examined under the light microscope. Ultrathin sections (65 nm) were stained with uranyl acetate and Reynold's lead citrate and examined on a JEOL 1400 transmission electron microscope (JEOL Peabody, MA) with a side-mount AMT 2 k digital camera (Advanced Microscopy Techniques, Danvers, MA).

| Substance | pulmonary vascular resistance (PVR) during EVLP (rat lungs) | syndecan-1 concentration in EVLP perfusate (rat lungs) | Evans blue dye (EBD) penetration into lung parenchyma (rat lungs) | IL-1β mRNA expression (IL-6, IL-1β, MMP-9 mRNA) | IL-6 mRNA expression (IL-6, IL-1β, MMP-9 mRNA) | MMP-9 mRNA expression (IL-6, IL-1β, MMP-9 mRNA) | gross visual appearance of excised lungs [1] | eGC ultrastructure in lung vasculature (TEM) [1] |
| --- | --- | --- | --- | --- | --- | --- | --- | --- |
| heparin | little to no increase | maintained at a constant level | significantly less EBD penetration | significantly lower | significantly lower | significantly lower | no significant changes in appearance | preserved; also recorded: intact and adherent to the cell surface |
| N-acetyl heparin [NAH] | little to no increase | maintained at a constant level | significantly less EBD penetration | significantly lower | significantly lower | significantly lower | no significant changes in appearance | intact and adherent to the cell surface |
